This assay deals with wheat rust fungi (Puccinia recondita). Briefly: Test Example 13 / Comparative Test Example 1: wheat rust, foliar spray. It counts as in vivo. The conditions noted are these: wheat (cv Shirogane), 12.5 ppm foliar spray, inoculated after 5 days. As for the experimental part:
A plastic pot was filled with soil and thereto wheat (cv; Shirogane) seeds were sown and the plants were grown in a greenhouse for 9 days. Any of the present compounds 1, 2, 3, 5, 6, 7, 8, 9, 10, 12, 13, 14, 15, 18, 19, 20, 21, 26, 27 and 28 each of which was made to a formulation according to the similar method to that of Formulation Example 6, was adjusted with water so as to be 12.5 ppm, and the adjusted solutions were sprayed to foliar parts so as to adhere adequately on the leaves of the above-mentioned wheat. After spraying the adjusted solutions, the plants were air-dried and were then cultivated at 20° C. under lighting for 5 days. The spores of wheat rust fungi (Puccinia recondita) were sprinkling-inoculated. After the inoculation, the plants were placed under a dark and humid condition at 23° C. for 1 day and were then cultivated at 20° C. under lighting for 8 days, and a lesion area was observed.
A plastic pot was filled with soils and thereto was seeded wheat (cv; Shirogane) and the plants were grown in a greenhouse for 9 days. 1-(2-{[2-methyl-4-(1-methyl-1H-pyrazol-3-yl)phenoxy]methyl}-3-methylphenyl)-4-m ethyl-4,5-dihydrotetrazole-5-one which was made to a formulation according to the similar method to that of Formulation Example 6 was adjusted with water so as to be 12.5 ppm. […]

On to `Cc1cc(-c2ccn(C)n2)ccc1OCc1c(C)cccc1-n1nnn(C)c1=O` [1-(2-{[2-methyl-4-(1-methyl-1H-pyrazol-3-yl)phenoxy]methyl}-3-methylphenyl)-4-m ethyl-4,5-dihydrotetrazole-5-one], for which the “lesion area compared to the lesion area in untreated plants” value is reported as not below 70%.

Values taken from patent publication US11046673B1, “Tetrazolinone compounds and its use” (SUMITOMO CHEMICAL COMPANY, LIMITED, priority 2016, dated 2021).
